Data as given in US11827627B2, “N-(hydroxyalkyl (hetero)aryl) tetrahydrofuran carboxamides as modulators of sodium channels” (VERTEX PHARMACEUTICALS INCORPORATED, priority 2021, dated 2023).

The compounds below were run against human NaV 1.8 (Homo sapiens, UniProt Q9Y5Y9) (assay: E-VIPR assay detecting and measuring NaV inhibition properties). Conditions: HEK cells expressing a truncated form of human NaV 1.8; electrical stimulation, membrane potential FRET dyes.
Format: cell-based
From the text: E-VIPR Assay Detecting and Measuring NaV Inhibition Properties
Sodium ion channels are voltage-dependent proteins that can be activated by inducing membrane voltage changes by applying electric fields. The electrical stimulation instrument and methods of use, referred to as E-VIPR, are described in International Publication No. WO 2002/008748 A3 and C.-J. Huang et al. Characterization of voltage-gated sodium channel blockers by electrical stimulation and fluorescence detection of membrane potential, 24 Nature Biotech. 439-46 (2006), both of which are incorporated by reference in their entirety. The instrument comprises a microtiter plate handler, an optical system for exciting the coumarin dye while simultaneously recording the coumarin and oxonol emissions, a waveform generator, a current- or voltage-controlled amplifier, and parallel electrode pairs that are inserted into assay plate wells. Under integrated computer control, this instrument passes user-programmed electrical stimulus protocols to cells within the wells of the microtiter plate.
16-20 hours prior to running the assay on E-VIPR, HEK cells expressing a truncated form of human NaV 1.8 with full channel activity were seeded into microtiter 384-well plates, pre-coated with matrigel, at a density of 25,000 cells per well. 2.5-5% KIR2.1 Bacmam virus was added to the final cell suspension before seeding into cell plates. HEK cells were grown in Dulbecco's Modified Eagle's Medium (DMEM) supplemented with 10% FBS (Fetal Bovine Serum, qualified; Sigma #F4135), 1% NEAA (Non-Essential Amino Acids, Gibco #11140), 1% HEPES (Gibco #15630), 1% Pen-Strep (Penicillin-Streptomycin; Gibco #15140) and 5 μg/ml Blasticidin (Gibco #R210-01). Cells were expanded in vented cap cell culture flasks, with 90-95% humidity and 5% CO2.
Reagents and Stock Solutions:
100 mg/mL Pluronic F-127 (Sigma #P2443), in dry DMSO
Compound Plates: Corning 384-well Polypropylene Round Bottom #3656
Cell Plates: 384-well tissue culture treated plates (Greiner #781091-2B)
2.5-5% KIR 2.1 Bacmam virus (produced in-house), prepared as described in Section 3.3 of J. A. Fornwald et al., Gene Expression in Mammalian Cells Using BacMam, a Modified Baculovirus System, 1350 Methods in Molecular Biology 95-116 (2016), the entire contents of which are incorporated by reference. The concentration used can be dependent on viral titer of each batch.
5 mM DiSBAC6(3), a voltage sensitive oxonol acceptor (CAS number 169211-44-3; 5-[3-(1,3-dihexylhexahydro-4,6-dioxo-2-thioxo-5-pyrimidinyl)-2-propen-1-ylidene]-1,3-dihexyldihydro-2-thioxo-4,6(1H,5H)-pyrimidinedione), in dry DMSO. The preparation of DiSBAC6(3) is analogous to that of DiSBAC4(3) as described in Voltage Sensing by Fluorescence Resonance Energy Transfer in Single Cells, Gonzalez, J. E. and Tsien, R. Y. (1995) Biophys. J. 69, 1272-1280.
5 mM CC2-DMPE, a commercially available membrane-bound coumarin phospholipid FRET donor (ThermoFisher Scientific catalog number K1017, CAS number 393782-57-5; tetradecanoic acid, 1,1′-[(1R)-1-[8-(6-chloro-7-hydroxy-2-oxo-2H-1-benzopyran-3-yl)-3-hydroxy-3-oxido-8-oxo-2,4-dioxa-7-aza-3-phosphaoct-1-yl]-1,2-ethanediyl]ester) was prepared in dry DMSO. See also, Improved indicators of cell membrane potential that use fluorescence resonance energy transfer, Gonzalez, J. E. and Tsien, R. Y. (1997) Chem. Biol. 4, 269-277.
Voltage Assay Background Suppression Compound (VABSC-1) is prepared in H2O (89-363 mM, range used to maintain solubility)
Human Serum (HS, Millipore #S1P1-01KL, or Sigma SLBR5469V and SLBR5470V as a 50%/50% mixture, for 25% assay final concentration)
Bath 1 Buffer: • Sodium Chloride 160 mM (9.35 g/L), Potassium Chloride, 4.5 mM (0.335 g/L), Glucose 10 mM (1.8 g/L), Magnesium Chloride (Anhydrous) 1 mM (0.095 g/L), Calcium Chloride 2 mM (0.222 g/L), HEPES 10 mM (2.38 g/L) in water. […]

Sequence of human NaV 1.8 (Q9Y5Y9 126-1722 limits assumed): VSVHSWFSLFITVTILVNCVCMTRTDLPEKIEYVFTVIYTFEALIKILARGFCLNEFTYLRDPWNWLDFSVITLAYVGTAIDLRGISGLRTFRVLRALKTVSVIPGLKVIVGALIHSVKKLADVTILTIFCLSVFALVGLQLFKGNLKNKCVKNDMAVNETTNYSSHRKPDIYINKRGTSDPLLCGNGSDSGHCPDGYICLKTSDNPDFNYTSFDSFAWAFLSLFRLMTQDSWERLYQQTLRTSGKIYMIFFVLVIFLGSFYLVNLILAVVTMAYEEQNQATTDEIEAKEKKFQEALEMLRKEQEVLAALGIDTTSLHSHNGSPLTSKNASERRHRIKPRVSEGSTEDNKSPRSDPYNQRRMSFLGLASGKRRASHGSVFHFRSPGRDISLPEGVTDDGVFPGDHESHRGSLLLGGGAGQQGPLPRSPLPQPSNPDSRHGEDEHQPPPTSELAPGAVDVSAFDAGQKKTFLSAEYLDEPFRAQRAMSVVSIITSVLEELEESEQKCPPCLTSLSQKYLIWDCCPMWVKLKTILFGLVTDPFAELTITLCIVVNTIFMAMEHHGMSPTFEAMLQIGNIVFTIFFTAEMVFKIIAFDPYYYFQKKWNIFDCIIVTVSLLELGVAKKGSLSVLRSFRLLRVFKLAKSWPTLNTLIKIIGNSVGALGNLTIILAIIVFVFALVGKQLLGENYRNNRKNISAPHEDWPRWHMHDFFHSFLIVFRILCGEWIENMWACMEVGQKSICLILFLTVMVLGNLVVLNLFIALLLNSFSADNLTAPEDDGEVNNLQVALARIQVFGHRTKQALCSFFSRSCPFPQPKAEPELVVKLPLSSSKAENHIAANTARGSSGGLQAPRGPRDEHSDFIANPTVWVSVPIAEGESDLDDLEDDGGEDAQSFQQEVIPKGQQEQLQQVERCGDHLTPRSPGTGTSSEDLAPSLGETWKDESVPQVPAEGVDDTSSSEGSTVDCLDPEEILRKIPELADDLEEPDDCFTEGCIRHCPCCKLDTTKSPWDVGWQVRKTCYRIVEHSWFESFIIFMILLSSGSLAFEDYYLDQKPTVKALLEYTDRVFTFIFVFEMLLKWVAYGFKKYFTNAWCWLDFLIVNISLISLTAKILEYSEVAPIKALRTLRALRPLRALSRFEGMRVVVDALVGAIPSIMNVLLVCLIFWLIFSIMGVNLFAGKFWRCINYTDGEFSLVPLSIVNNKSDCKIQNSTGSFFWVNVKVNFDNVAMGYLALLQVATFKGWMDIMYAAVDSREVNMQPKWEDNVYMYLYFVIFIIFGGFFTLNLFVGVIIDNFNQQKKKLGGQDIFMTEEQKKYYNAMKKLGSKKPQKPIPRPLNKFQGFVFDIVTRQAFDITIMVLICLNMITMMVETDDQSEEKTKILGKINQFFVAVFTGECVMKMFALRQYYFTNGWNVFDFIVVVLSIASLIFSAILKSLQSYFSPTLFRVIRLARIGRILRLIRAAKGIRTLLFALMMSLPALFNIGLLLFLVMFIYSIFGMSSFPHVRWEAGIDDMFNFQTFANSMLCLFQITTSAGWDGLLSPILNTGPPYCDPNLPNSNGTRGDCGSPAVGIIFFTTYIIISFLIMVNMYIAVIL

SMILES | IC50 [nM]
CCOc1c([C@@H]2C[C@](C)(C(F)(F)F)O[C@H]2C(=O)Nc2ccc([C@H](O)CO)nc2)ccc(F)c1F (single isomer, unassigned) [Compound 33, rel-(2R,3S,5R)-N-(6-((S*)-1,2-dihydroxyethyl)pyridin-3-yl)-3-(2-ethoxy-3,4-difluorophenyl)-5-methyl-5-(trifluoromethyl)tetrahydrofuran-2-carboxamide] | 100 to 1000
CCOc1c([C@H]2C[C@@](C)(C(F)(F)F)O[C@@H]2C(=O)Nc2ccc([C@@H](O)CO)nc2)ccc(F)c1F (single isomer, unassigned) [Compound 34, rel-(2S,3R,5S)-N-(6-((R*)-1,2-dihydroxyethyl)pyridin-3-yl)-3-(2-ethoxy-3,4-difluorophenyl)-5-methyl-5-(trifluoromethyl)tetrahydrofuran-2-carboxamide] | ≥ 1000
CCOc1c([C@@H]2C[C@](C)(C(F)(F)F)O[C@H]2C(=O)Nc2ccc([C@@H](O)CO)nc2)ccc(F)c1F (single isomer, unassigned) [Compound 35, rel-(2R,3S,5R)-N-(6-((R*)-1,2-dihydroxyethyl)pyridin-3-yl)-3-(2-ethoxy-3,4-difluorophenyl)-5-methyl-5-(trifluoromethyl)tetrahydrofuran-2-carboxamide] | 10 to 100
CCOc1c([C@H]2[C@H](C(=O)Nc3ccc([C@@H](O)CO)nc3)O[C@@](C)(C(F)(F)F)[C@H]2C)ccc(F)c1C (single isomer, unassigned) [Compound 40, rel-(2R,3S,4S,5R)—N-(6-((R*)-1,2-dihydroxyethyl)pyridin-3-yl)-3-(2-ethoxy-4-fluoro-3-methylphenyl)-4,5-dimethyl-5-(trifluoromethyl)tetrahydrofuran-2-carboxamide] | < 10
CCOc1c([C@@H]2[C@@H](C(=O)Nc3ccc([C@@H](O)CO)nc3)O[C@](C)(C(F)(F)F)[C@@H]2C)ccc(F)c1C (single isomer, unassigned) [Compound 41, rel-(2S,3R,4R,5S)—N-(6-((R*)-1,2-dihydroxyethyl)pyridin-3-yl)-3-(2-ethoxy-4-fluoro-3-methylphenyl)-4,5-dimethyl-5-(trifluoromethyl)tetrahydrofuran-2-carboxamide] | ≥ 1000
CCOc1c([C@H]2[C@H](C(=O)Nc3ccc([C@H](O)CO)nc3)O[C@@](C)(C(F)(F)F)[C@H]2C)ccc(F)c1C (single isomer, unassigned) [Compound 42, rel-(2R,3S,4S,5R)-N-(6-((S*)-1,2-dihydroxyethyl)pyridine-3-yl)-3-(2-ethoxy-4-fluoro-3-methylphenyl)-4,5-dimethyl-5-(trifluoromethyl)tetrahydrofuran-2-carboxamide] | < 10
CCOc1c([C@@H]2[C@@H](C(=O)Nc3ccc([C@H](O)CO)nc3)O[C@](C)(C(F)(F)F)[C@@H]2C)ccc(F)c1C (single isomer, unassigned) [Compound 43, rel-(2S,3R,4R,5S)-N-(6-((S*)-1,2-dihydroxyethyl)pyridin-3-yl)-3-(2-ethoxy-4-fluoro-3-methylphenyl)-4,5-dimethyl-5-(trifluoromethyl)tetrahydrofuran-2-carboxamide] | ≥ 1000
COc1c(C2C(C(=O)Nc3ccc(C(O)CO)nc3)OC(C)(C(F)(F)F)C2C)ccc(F)c1C (single isomer, unassigned) [Compound 44, rel-(2S,3R,4R,5S)-N-(6-((S*)-1,2-dihydroxyethyl)138yridine-3-yl)-3-(4-fluoro-2-methoxy-3-methylphenyl)-4,5-dimethyl-5-(trifluoromethyl)tetrahydrofuran-2-carboxamide] | ≥ 1000
COc1c([C@H]2[C@H](C(=O)Nc3ccc([C@H](O)CO)nc3)O[C@@](C)(C(F)(F)F)[C@H]2C)ccc(F)c1C (single isomer, unassigned) [Compound 45, rel-(2R,3S,4S,5R)-N-(6-((S*)-1,2-dihydroxyethyl)pyridin-3-yl)-3-(4-fluoro-2-methoxy-3-methylphenyl)-4,5-dimethyl-5-(trifluoromethyl)tetrahydrofuran-2-carboxamide] | 10 to 100
COc1c([C@@H]2[C@@H](C(=O)Nc3ccc([C@@H](O)CO)nc3)O[C@](C)(C(F)(F)F)[C@@H]2C)ccc(F)c1C (single isomer, unassigned) [Compound 46, rel-(2S,3R,4R,5S)-N-(6-((R*)-1,2-dihydroxyethyl)pyridin-3-yl)-3-(4-fluoro-2-methoxy-3-methylphenyl)-4,5-dimethyl-5-(trifluoromethyl)tetrahydrofuran-2-carboxamide] | ≥ 1000
COc1c(C2C(C(=O)Nc3cnc(CO)nc3)OC(C)(C(F)(F)F)C2C)ccc(F)c1C(F)F (single isomer, unassigned) [Compound 54] | < 10
COc1c(C2C(C(=O)Nc3cnc(CO)nc3)OC(C)(C(F)(F)F)C2C)ccc(F)c1C(F)F (single isomer, unassigned) [Compound 55] | 100 to 1000

Other lines, results leading:

IC50 [nM] | SMILES
< 10 | COc1c([C@H]2[C@H](C(=O)Nc3ccc([C@@H](O)CO)nc3)O[C@@](C)(C(F)(F)F)[C@H]2C)ccc(F)c1C (single isomer, unassigned) [Compound 47, rel-(2R,3S,4S,5R)-N-(6-((R*)-1,2-dihydroxyethyl)pyridin-3-yl)-3-(4-fluoro-2-methoxy-3-methylphenyl)-4,5-dimethyl-5-(trifluoromethyl)tetrahydrofuran-2-carboxamide]
≥ 1000 | COc1c([C@@H]2[C@@H](C(=O)Nc3ccc([C@H](O)CO)nc3)O[C@](C)(C(F)(F)F)[C@@H]2C)ccc(F)c1C(F)F (single isomer, unassigned) [Compound 48, rel-(2S,3R,4R,5S)-3-(3-(difluoromethyl)-4-fluoro-2-methoxyphenyl)-N-(6-((S*)-1,2-dihydroxyethyl)pyridin-3-yl)-4,5-dimethyl-5-(trifluoromethyl)tetrahydrofuran-2-carboxamide]
< 10 | COc1c([C@H]2[C@H](C(=O)Nc3ccc([C@H](O)CO)nc3)O[C@@](C)(C(F)(F)F)[C@H]2C)ccc(F)c1C(F)F (single isomer, unassigned) [Compound 49, rel-(2R,3S,4S,5R)-3-(3-(difluoromethyl)-4-fluoro-2-methoxyphenyl)-N-(6-((S*)-1,2-dihydroxyethyl)pyridin-3-yl)-4,5-dimethyl-5-(trifluoromethyl)tetrahydrofuran-2-carboxamide]
≥ 1000 | COc1c(C2C(C(=O)Nc3ccc(C(O)CO)nc3)OC(C)(C(F)(F)F)C2C)ccc(F)c1C(F)F (single isomer, unassigned) [Compound 50]
< 10 | COc1c(C2C(C(=O)Nc3ccc(C(O)CO)nc3)OC(C)(C(F)(F)F)C2C)ccc(F)c1C(F)F (single isomer, unassigned) [Compound 51]
≥ 1000 | COc1c(C2C(C(=O)Nc3ccc(CO)nc3)OC(C)(C(F)(F)F)C2C)ccc(F)c1C(F)F (single isomer, unassigned) [Compound 52]
< 10 | COc1c(C2C(C(=O)Nc3ccc(CO)nc3)OC(C)(C(F)(F)F)C2C)ccc(F)c1C(F)F (single isomer, unassigned) [Compound 53]
≥ 1000 | COc1c([C@@H]2[C@@H](C(=O)Nc3ccc(C(C)O)nc3)O[C@](C)(C(F)(F)F)[C@@H]2C)ccc(F)c1C(F)F (single isomer, unassigned) [Compound 57]
